According to patent US7816358B2, “Pharmaceutical formulations comprising N,N′-disubstituted piperazine compounds” (Gruenenthal GmbH, priority 2001, dated 2010):

Tested on: gabapentin binding site
Experiment: Gabapentin binding assay: displacement of [3H]-gabapentin from its binding site
Settings: compound 10 μM in the test batch; [3H]-gabapentin 10 nM; homogenate 0.6 mg/ml protein; 40 minutes at room temperature
Description: In the binding assay, the binding and affinities of the compounds according to the invention to the binding site—which is also hitherto still unknown in science—of gabapentin is investigated. The affinity of the compounds was measured via the displacement of gabapentin from its binding site.
The procedure for the measurement was as follows: Homogenate aliquots were thawed and diluted 20-fold with buffer 1, resuspended and then centrifuged at 110,000×g for 20 minutes. The pellet was resuspended with buffer 2 (10 mM HEPES, 0.05% NaN3, 1 tablet of Complete (Roche Diagnostics) per 100 ml, 0.004% Structol, pH 7.4) and adjusted to a protein concentration of 0.6 mg/ml. 225 μl of homogenate, 20 μl of [^3H]-gabapentin (76 Ci/mmol) in buffer 2, corresponding to a concentration of 10 nM in the test batch, and 5 μl of a compound according to the invention (dissolved in 25% DMSO in water) with a concentration of 10 μM in the test batch were incubated on a shaking machine for 40 minutes at room temperature in 96-well microtiter plates (polypropylene, Costar) and the incubated mixture was then filtered with suction on 96-well Unifilter plates with GF/B filters (Whatman) using a harvester (Robotic Harvester 9600, Brandel). The filter plates were preswollen for 40 minutes in buffer 3 (50 mM Tris, 0.5% PEI, pH 7.4) before the filtering step. The filter plates were washed three times with wash buffer (0.1 M NaCl with 0.05 NaN3) after the filtering step in order to remove non-bound radioligand, and then dried in a drying cabinet at 55° C. After a cooling phase of 15 minutes, 35 μl of scintillator (Ultima Gold MV, Packard) were added per well and the radioactivity on the filters was then determined in a β-counter (Trilux Microbeta, Wallac).

SMILES | Gabapentin [%] inhibition
CN1CCN(CC2CCCCCC2(O)Cc2c(F)cccc2Cl)CC1 (stereo not drawn) [1-(2-Chloro-6-fluoro-benzyl)-2-(4-methyl-piperzazin-1-ylmethyl)-cycloheptanol] | 82%
CN1CCN(CC2CCCCCCCCCCC2(O)Cc2cccc(F)c2)CC1 (stereo not drawn) [1-(3-Fluoro-benzyl)-2-(4-methyl-piperazin-1-ylmeethyl)-cyclododecanol] | 45%
CN1CCN(CC2CCCCCCC2(O)Cc2ccc(F)cc2)CC1 (stereo not drawn) [1-(4-Fluoro-benzyl)-2-(4-methyl-piperazin-1-ylmethyl)-cyclooctanol] | 39%
CN1CCN(CC2CCCCCCCCCCC2(O)Cc2ccccc2)CC1 (stereo not drawn) [1-Benzyl-2-(4-methyl-piperazin-1-ylmethyl)-cyclododecanol] | 56%
CN1CCN(CC2CCCCCCC2(O)Cc2cccc(F)c2)CC1 (stereo not drawn) [1-(3-Fluoro-benzyl)-2-(4-methyl-piperazin-1-ylmethyl)-cyclooctanol] | 42%
CN1CCN(CC2CCCCCCC2(O)Cc2c(F)cccc2Cl)CC1 (stereo not drawn) [1-(2-Chloro-6-fluoro-benzyl)-2-(4-methyl-piperazin-1-ylmethyl)-cyclooctanol] | 60%
CN1CCN(CC2CCCCCCC2(O)Cc2ccccc2Cl)CC1 (stereo not drawn) [1-(2-Chloro-benzyl)-2-(4-methyl-piperazin-1-ylmethyl)-cyclooctanol] | 61%
CN1CCN(CC2CCCCCCC2(O)Cc2ccc(Cl)cc2Cl)CC1 (stereo not drawn) [1-(2,4-Dichloro-benzyl)-2-(4-methyl-piperazin-1-ylmethyl)-cyclooctanol] | 48%
CN1CCN(CC2CCCCCC2(O)Cc2cccc(F)c2)CC1 (stereo not drawn) [1-(3-Fluoro-benzyl)-2-(4-methyl-piperazin-1-ylmethyl)-cycloheptanol] | 44%
CN1CCN(CC2CCCCCC2(O)Cc2ccccc2Cl)CC1 (stereo not drawn) [1-(2-Chloro-benzyl)-2-(4-methyl-piperazin-1-ylmethyl)-cycloheptanol] | 74%
CN1CCN(CC2CCCCCC2(O)Cc2ccc(Cl)cc2Cl)CC1 (stereo not drawn) [1-(2,4-Dichloro-benzyl)-2-(4-methyl-piperazin-1-ylmethyl)-cycloheptanol] | 48%
C=CC1(O)CCCCCCCCCCC1CN1CCN(C)CC1 (stereo not drawn) [2-(4-Methyl-piperazin-1-ylmethyl)-1-vinyl-cyclododecanol] | 49%
